Consider 20 compounds from ChEMBL document CHEMBL4414548 (J Med Chem, 2019).

Each structure is given as a SMILES string.

The target in data set [1] is 3',5'-cyclic-AMP phosphodiesterase 4D (Homo sapiens, UniProt Q08499). Nature of the data set: Inhibition of [3H]cAMP binding to recombinant human His-Tb fused PDE4D2 (86 to 413 residues) expressed in Escherichia coli using [3H]cAMP as substrate preincubated for 10 mins followed by [3H]cAMP addition and measured after 1 hr by scintillation proximity assay.
Data set [2] can be described thus: Metabolic stability in mouse liver microsomes assessed as parent compound remaining after 10 mins. Type of data set: ADME, Microsome. To be noted: read-out: Stability.
Data set [3] in a line: Permeability across apical to basolateral side in human Caco2 cells. To be noted: Caco-2, read-out: permeability. Type of data set: ADME, cell-based.
A short description of data set [4]: Metabolic stability in rat liver microsomes assessed as parent compound remaining after 10 mins. Type of data set: ADME, Microsome. To be noted: read-out: Stability.
Data set [5] concerns the target T1, Non-receptor tyrosine-protein kinase TYK2 (Homo sapiens, UniProt P29597). The data set can be described thus: Inhibition of TYK2 JH2 domain in human whole blood assessed as inhibition of IFNalpha-induced STAT5 phosphorylation preincubated for 1 hr followed by IFNalpha stimulation and measured after 15 mins by fluorescence assay. Type of data set: tissue-based.

The target in data set [6] is T1, Non-receptor tyrosine-protein kinase TYK2. Nature of the data set: Inhibition of fluorescein-labeled kinase tracer binding to His-TVMV-fused TYK2 JH2 domain (575 to 869 residues) (unknown origin) measured after 90 mins by HTRF assay.
Data set [7] has as its target JAK1/TYK2 (Homo sapiens, UniProt P23458+P29597). Nature of the data set: Inhibition of TYK2/JAK1 in IFNalpha-stimulated human Kit225 cells by steady-glo luciferase assay.
The target in data set [8] is JAK2/TYK2 (Homo sapiens, UniProt O60674+P29597). The data set can be described thus: Inhibition of TYK2/JAK2 in IL23-stimulated human Kit225 cells by steady-glo luciferase assay.
Data set [9] is described as follows: Efflux ratio of permeability in human Caco2. It counts as ADME, cell-based. Conditions: Caco-2.
Data set [10] is described as follows: Metabolic stability in human liver microsomes assessed as parent compound remaining after 10 mins. Type of data set: ADME, Microsome. To be noted: read-out: Stability.
The target in data set [11] is Mast/stem cell growth factor receptor Kit (Homo sapiens, UniProt P10721). Nature of the data set: Inhibition of cKIT (unknown origin).
Data set [12] in a line: AUClast in mouse at 10 mg/kg, po after 7 hrs. Conditions: in vivo. The arrangement: time < 7 hr, dose 10 mg/kg, route oral. Type of data set: ADME, organism-based.
Data set [13] is described as follows: Half life in mouse liver microsomes. Type of data set: ADME, Microsome.
Data set [14] can be described thus: Half life in cynomolgus monkey liver microsomes. It counts as ADME, Macaca fascicularis, Microsome.
Data set [15] is described as follows: Half life in human liver microsomes. It counts as ADME, Microsome.
Data set [16] in a line: Half life in rat liver microsomes. Type of data set: ADME, Microsome.
Data set [17] in a line: Partition coefficient, log P of compound by HPLC analysis. It counts as physicochemical. Conditions: octanol/water.
Data set [18] is described as follows: Half life in dog liver microsomes. Type of data set: ADME, Canis lupus familiaris, Microsome.
The target of data set [19] is Non-receptor tyrosine-protein kinase TYK2 (Mus musculus, UniProt Q9R117). Nature of the data set: Inhibition of TYK2 JH2 domain in mouse whole blood assessed as inhibition of IFNalpha-induced STAT1 phosphorylation preincubated for 1 hr followed by IFNalpha stimulation and measured after 15 mins by fluorescence assay. It counts as tissue-based.
A short description of data set [20]: Cmax in mouse at 10 mg/kg, po after 7 hrs. Type of data set: ADME, organism-based. The arrangement: dose 10 mg/kg, route oral. To be noted: in vivo.
Data set [21] addresses Voltage-gated inwardly rectifying potassium channel KCNH2 (Homo sapiens, UniProt Q12809). The data set can be described thus: Inhibition of human ERG by fluorescence polarization assay.
Data set [22] has as its target T1, Non-receptor tyrosine-protein kinase TYK2. The data set can be described thus: Inhibition of TYK2 JH1 domain (unknown origin).
In data set [23] the target is JAK2/JAK1 (Homo sapiens, UniProt O60674+P23458). Nature of the data set: Inhibition of JAK1/JAK2 (unknown origin) in GM-CSF stimulated cells by cell based assay.
Data set [24] has as its target Tyrosine-protein kinase JAK2 (Homo sapiens, UniProt O60674). The data set can be described thus: Inhibition of JAK2 JH1 domain (unknown origin).
In data set [25] the target is JAK3/JAK1 (Homo sapiens, UniProt P23458+P52333). The data set can be described thus: Inhibition of JAK1/JAK3 (unknown origin) in IL-2 stimulated cells by cell based assay.
The target in data set [26] is Tyrosine-protein kinase JAK1 (Homo sapiens, UniProt P23458). The data set can be described thus: Inhibition of JAK1 JH1 domain (unknown origin).
Tyrosine-protein kinase JAK1, sequence (P23458 whole entry, the tested form may be a part): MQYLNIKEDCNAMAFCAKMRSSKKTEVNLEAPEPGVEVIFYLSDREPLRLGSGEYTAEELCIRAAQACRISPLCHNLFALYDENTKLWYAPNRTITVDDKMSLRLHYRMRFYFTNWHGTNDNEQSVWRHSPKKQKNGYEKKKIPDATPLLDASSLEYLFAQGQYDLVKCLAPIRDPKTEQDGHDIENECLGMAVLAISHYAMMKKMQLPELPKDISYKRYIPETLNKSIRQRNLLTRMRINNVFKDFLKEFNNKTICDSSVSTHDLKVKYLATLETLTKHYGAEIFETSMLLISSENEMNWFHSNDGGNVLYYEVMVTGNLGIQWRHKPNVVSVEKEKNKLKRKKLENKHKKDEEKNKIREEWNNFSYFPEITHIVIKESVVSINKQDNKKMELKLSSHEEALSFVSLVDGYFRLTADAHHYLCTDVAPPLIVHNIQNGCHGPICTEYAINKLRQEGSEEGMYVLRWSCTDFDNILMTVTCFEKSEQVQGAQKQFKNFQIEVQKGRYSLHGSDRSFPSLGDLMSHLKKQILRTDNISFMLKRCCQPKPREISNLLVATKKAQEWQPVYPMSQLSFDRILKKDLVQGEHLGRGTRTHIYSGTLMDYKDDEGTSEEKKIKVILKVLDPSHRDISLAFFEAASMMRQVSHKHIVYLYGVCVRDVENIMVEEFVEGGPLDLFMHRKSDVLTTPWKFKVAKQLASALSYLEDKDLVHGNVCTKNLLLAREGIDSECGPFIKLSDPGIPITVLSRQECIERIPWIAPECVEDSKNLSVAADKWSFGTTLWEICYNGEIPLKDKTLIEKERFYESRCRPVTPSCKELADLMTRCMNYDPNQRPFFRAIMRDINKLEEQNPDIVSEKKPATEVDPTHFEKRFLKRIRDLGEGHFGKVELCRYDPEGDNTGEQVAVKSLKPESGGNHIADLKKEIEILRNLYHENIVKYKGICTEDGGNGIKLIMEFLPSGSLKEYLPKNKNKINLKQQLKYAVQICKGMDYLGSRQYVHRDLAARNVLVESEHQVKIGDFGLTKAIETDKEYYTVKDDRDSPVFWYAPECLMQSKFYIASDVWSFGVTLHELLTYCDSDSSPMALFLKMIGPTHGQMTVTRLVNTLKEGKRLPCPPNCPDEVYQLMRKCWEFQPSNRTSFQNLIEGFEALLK

T1 sequence (P29597 whole entry, the tested form may be a part): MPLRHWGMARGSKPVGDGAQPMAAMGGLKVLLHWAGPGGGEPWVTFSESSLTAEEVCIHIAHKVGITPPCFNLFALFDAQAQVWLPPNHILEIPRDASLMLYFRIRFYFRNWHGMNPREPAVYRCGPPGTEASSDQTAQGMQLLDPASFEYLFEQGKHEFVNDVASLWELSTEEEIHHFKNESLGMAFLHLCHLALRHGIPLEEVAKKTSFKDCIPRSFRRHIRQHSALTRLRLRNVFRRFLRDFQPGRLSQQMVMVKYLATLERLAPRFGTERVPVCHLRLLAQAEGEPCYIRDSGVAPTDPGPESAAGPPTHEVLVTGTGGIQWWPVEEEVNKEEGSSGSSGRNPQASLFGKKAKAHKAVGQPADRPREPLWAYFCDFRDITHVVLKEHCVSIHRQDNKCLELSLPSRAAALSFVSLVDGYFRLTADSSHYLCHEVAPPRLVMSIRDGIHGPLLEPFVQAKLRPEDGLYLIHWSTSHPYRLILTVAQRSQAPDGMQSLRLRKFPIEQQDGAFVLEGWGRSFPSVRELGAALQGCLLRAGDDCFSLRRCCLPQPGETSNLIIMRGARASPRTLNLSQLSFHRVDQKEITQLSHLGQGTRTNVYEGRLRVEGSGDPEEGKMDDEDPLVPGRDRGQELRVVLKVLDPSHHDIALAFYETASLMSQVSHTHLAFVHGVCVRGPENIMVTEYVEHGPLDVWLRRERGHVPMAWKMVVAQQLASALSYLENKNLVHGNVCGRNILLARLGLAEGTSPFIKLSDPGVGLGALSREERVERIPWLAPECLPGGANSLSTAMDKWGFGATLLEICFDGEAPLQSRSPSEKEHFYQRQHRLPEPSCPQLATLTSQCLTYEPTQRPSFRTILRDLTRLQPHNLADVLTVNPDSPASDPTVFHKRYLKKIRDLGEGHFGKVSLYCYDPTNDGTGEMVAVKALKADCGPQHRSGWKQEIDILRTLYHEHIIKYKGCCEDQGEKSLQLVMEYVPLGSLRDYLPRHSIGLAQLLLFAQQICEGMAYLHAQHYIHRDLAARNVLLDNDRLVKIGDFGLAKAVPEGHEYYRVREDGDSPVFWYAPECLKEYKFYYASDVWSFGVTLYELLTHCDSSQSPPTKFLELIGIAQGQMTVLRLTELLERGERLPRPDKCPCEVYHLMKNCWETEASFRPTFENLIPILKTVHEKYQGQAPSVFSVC
JAK3/JAK1, sequence (P52333 whole entry, the tested form may be a part): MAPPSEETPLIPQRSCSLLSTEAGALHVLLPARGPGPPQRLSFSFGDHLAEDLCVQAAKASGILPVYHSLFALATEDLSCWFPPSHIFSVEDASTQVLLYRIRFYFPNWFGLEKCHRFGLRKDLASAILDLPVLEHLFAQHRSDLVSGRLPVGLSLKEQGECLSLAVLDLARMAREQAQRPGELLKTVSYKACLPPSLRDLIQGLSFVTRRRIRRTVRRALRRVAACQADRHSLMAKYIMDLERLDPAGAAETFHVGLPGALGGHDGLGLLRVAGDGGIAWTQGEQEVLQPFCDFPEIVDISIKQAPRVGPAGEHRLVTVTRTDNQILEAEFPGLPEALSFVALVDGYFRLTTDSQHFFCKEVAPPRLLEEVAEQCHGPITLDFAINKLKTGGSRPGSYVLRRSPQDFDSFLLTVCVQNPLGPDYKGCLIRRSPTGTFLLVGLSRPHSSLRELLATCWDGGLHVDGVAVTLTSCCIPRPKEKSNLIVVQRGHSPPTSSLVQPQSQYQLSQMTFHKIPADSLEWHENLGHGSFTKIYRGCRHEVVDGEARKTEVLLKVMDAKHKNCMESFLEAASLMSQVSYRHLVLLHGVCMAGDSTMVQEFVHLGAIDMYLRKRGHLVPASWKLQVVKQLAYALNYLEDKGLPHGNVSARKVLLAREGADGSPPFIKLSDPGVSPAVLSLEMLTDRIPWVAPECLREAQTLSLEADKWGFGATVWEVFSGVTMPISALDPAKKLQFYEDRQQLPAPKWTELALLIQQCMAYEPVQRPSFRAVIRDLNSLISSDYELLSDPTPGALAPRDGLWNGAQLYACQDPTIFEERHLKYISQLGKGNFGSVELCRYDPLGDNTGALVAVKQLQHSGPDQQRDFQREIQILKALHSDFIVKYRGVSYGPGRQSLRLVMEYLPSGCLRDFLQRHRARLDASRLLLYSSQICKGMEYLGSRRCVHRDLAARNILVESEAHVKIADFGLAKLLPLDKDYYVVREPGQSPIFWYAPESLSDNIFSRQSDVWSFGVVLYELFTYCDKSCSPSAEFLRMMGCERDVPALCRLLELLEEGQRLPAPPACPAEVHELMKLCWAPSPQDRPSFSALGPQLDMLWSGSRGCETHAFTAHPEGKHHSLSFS
JAK3/JAK1, sequence (P23458 whole entry, the tested form may be a part): as the sequence (P23458 whole entry, the tested form may be a part) above
Non-receptor tyrosine-protein kinase TYK2 (Mus musculus, UniProt Q9R117), sequence (Q9R117 whole entry, the tested form may be a part): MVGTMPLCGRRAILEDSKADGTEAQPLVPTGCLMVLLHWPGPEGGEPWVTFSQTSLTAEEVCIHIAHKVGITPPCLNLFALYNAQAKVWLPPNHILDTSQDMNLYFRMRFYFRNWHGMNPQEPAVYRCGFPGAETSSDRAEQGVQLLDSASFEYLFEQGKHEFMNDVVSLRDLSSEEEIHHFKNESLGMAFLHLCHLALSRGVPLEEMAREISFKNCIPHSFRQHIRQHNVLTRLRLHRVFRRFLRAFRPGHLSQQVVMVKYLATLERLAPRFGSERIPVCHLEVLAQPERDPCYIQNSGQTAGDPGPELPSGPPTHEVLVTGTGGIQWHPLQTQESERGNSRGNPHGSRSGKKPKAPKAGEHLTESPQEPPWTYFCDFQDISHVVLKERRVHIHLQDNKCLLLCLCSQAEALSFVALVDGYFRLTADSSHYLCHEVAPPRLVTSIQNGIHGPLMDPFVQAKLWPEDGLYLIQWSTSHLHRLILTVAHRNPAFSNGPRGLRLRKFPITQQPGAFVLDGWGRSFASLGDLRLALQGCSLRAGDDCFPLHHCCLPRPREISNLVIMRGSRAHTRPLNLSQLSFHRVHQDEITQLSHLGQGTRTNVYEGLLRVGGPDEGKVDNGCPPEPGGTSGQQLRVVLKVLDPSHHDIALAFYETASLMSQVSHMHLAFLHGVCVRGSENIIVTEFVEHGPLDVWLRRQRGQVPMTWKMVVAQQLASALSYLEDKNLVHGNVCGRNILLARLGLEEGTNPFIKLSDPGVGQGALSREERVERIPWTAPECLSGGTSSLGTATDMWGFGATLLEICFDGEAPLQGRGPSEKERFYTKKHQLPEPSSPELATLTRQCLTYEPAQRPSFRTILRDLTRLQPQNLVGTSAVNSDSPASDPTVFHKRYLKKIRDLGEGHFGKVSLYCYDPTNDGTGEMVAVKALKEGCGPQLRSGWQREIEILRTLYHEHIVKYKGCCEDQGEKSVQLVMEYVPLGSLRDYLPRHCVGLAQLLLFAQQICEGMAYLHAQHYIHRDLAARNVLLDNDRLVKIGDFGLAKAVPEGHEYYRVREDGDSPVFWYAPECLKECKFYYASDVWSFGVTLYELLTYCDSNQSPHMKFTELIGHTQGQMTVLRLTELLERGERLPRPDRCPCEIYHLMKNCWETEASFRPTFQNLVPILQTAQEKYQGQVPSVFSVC
JAK1/TYK2, sequence (P23458 whole entry): as the sequence (P23458 whole entry, the tested form may be a part) above
JAK1/TYK2, sequence (P29597 whole entry): as the sequence (P29597 whole entry, the tested form may be a part) above

As for `CNC(=O)c1cnc(Nc2ccc(F)cn2)cc1Nc1ccccc1SC`, the IC50 in data set [1] was found to be 4400 nM; in [5], 3100 nM; in data set [6], 1.8 nM; in [7], 240 nM; in data set [8] it was 330 nM. Also, the remaining at 10 min in data set [2] is 30%; in data set [4], 9%; in data set [10], 36%. Moreover, in data set [3], the Papp A→B was determined as 7.9 ×10⁻⁶ cm/s. Besides, the efflux ratio in [9] stood at 0.5.

As to `CNC(=O)c1cnc(Nc2ccccn2)cc1Nc1ccccc1S(C)(=O)=O`, the IC50 was 630 nM in data set [11]; 250 nM in [5]; 0.95 nM in [6]; 57 nM in data set [7]; 71 nM in data set [8]; 340 nM in data set [19]. The compound also had an IC50 in [21] of 36000 nM. The AUC(0-t) at 7 h in [12] is 4.29 µM·h. In data set [3], the Papp A→B came out at 10.2 ×10⁻⁶ cm/s. Moreover, the half-life in data set [13] was determined as 14 min; in data set [14], 3 min; in data set [15], 53 min; in [16], 25 min; in data set [18], 13 min. This compound showed a logP in data set [17] of 2.24. For the same compound, the efflux ratio in data set [9] came out at 9.8. In data set [20], this compound registered a Cmax of 1860 nM.

In the case of `CN(C)C(=O)c1cnc(Nc2ccc(F)cn2)cc1Nc1ccccc1C(N)=O`, the IC50 was above 2000 nM in data set [22]; above 12500 nM in data set [23]; above 2000 nM in [24]; 87 nM in data set [6]; 12000 nM in [7]; 11000 nM in data set [8]. For the same compound, the IC50 is above 12500 nM in [25] and above 2000 nM in [26].

For `CNC(=O)c1cnc(Nc2ncccn2)cc1Nc1ccccc1C(N)=O`, the IC50 in [6] is 60 nM; in data set [7] it was above 12500 nM; in data set [8], above 12500 nM.

On to `NC(=O)c1ccccc1Nc1cc(Nc2ccc(F)cn2)ncc1C(=O)NC1CC1`, for which the IC50 was above 2000 nM in data set [22]; above 12500 nM in data set [23]; above 2000 nM in data set [24]; 33 nM in [6]; 5600 nM in [7]; 3300 nM in [8]. The results for the IC50 in data set [25] and in data set [26] were above 12500 nM and above 2000 nM, respectively.

As for `CNC(=O)c1cnc(Nc2cc(C)ccn2)cc1Nc1ccccc1S(C)(=O)=O`, the IC50 in [11] was above 2000 nM; in [5], 190 nM; in data set [7] it was 21 nM; in data set [8] it was 27 nM; in data set [21], 16000 nM. Also, in data set [3], the Papp A→B was 6.5 ×10⁻⁶ cm/s. In addition, the efflux ratio in data set [9] amounted to 9.

Turning to `CNC(=O)c1cnc(Nc2ccc(C)nn2)cc1Nc1ccccc1S(C)(=O)=O`, the IC50 in [11] is above 2000 nM; in [5], 630 nM; in data set [7], 320 nM; in [8] it was 490 nM; in data set [21] it was 43000 nM. In data set [3], the Papp A→B was below 1.5 ×10⁻⁶ cm/s. The efflux ratio in data set [9] is above 12.

With `CNC(=O)c1cnc(Nc2ccc(F)cn2)cc1Nc1ccccc1OC`, the IC50 in data set [1] amounted to 9200 nM; in data set [5], 3300 nM; in data set [6], 5.2 nM; in data set [7], 510 nM; in [8], 310 nM. Further, the remaining at 10 min in data set [2] stood at 35%; in data set [4] it was 28%; in data set [10], 52%. Also, the Papp A→B in data set [3] was 26.7 ×10⁻⁶ cm/s. The efflux ratio in [9] came to 0.4.

With `CNC(=O)c1cnc(Nc2ccc(OC)cn2)cc1Nc1ccccc1S(C)(=O)=O`, the half-inhibitory concentration (IC50) in [11] was determined as 830 nM. In addition, the Papp A→B in data set [3] came out at 2.9 ×10⁻⁶ cm/s.

`CCNC(=O)c1cnc(Nc2ccc(F)cn2)cc1Nc1ccccc1C(N)=O`: the IC50 in data set [22] was above 2000 nM; in [23] it was above 12500 nM; in data set [24] it was above 2000 nM; in [6] it was 13 nM; in [7], 2500 nM; in data set [8] it was 4100 nM. The results for the IC50 in data set [25] and in data set [26] were above 12500 nM and above 2000 nM, respectively.

Take `CNC(=O)c1cnc(Nc2ncccc2F)cc1Nc1ccccc1C(N)=O`: the IC50 in data set [6] was determined as 5.9 nM; in data set [7], 1800 nM; in data set [8], 1300 nM.

With `CCCC(=O)Nc1cc(Nc2ccccc2S(C)(=O)=O)c(C(=O)NC)cn1`, the IC50 in data set [11] was above 2000 nM; in data set [5], 2500 nM; in data set [7] it was 2700 nM; in data set [8] it was 2000 nM.

For `CCS(=O)(=O)c1ccccc1Nc1cc(Nc2ccc(F)cn2)ncc1C(=O)NC`, the IC50 in [1] was determined as 4600 nM; in data set [5] it was 4400 nM; in data set [6], 8 nM; in data set [7], 1000 nM; in data set [8], 1900 nM. Besides, the remaining at 10 min in [2] was found to be 43%; in data set [4], 76%; in [10], 91%. In [3], the Papp A→B is 5.3 ×10⁻⁶ cm/s. In addition, the efflux ratio in data set [9] is 6.

With `CNC(=O)c1cnc(Nc2ccccc2)cc1Nc1ccccc1C(N)=O`, the results for the IC50 in data set [6], in data set [7] and in data set [8] were 33 nM, 7600 nM and 6900 nM, respectively.

Regarding `CNC(=O)c1cnc(Nc2ccccn2)cc1Nc1ccccc1C(N)=O`, the IC50 in [6] is 1.6 nM; in data set [7], 310 nM; in [8], 280 nM.

On to `CS(=O)(=O)c1ccccc1Nc1cc(Nc2ccc(F)cn2)ncc1C(N)=O`, for which the remaining at 10 min in data set [2] amounted to 80%; in data set [4], 3%; in [10] it was 77%. Further, the IC50 in [22] was 42 nM; in data set [23], 260 nM; in data set [5] it was 33 nM; in data set [24], 18 nM; in data set [6] it was 0.32 nM; in data set [7], 35 nM. Also, the IC50 is 46 nM in [8], 83 nM in [19], 960 nM in [25] and 43 nM in [26].

Regarding `CNC(=O)c1cnc(NC(=O)C(C)C)cc1Nc1ccccc1S(C)(=O)=O`, the IC50 in data set [11] was above 2000 nM; in data set [5], 5200 nM; in data set [7] it was 4400 nM; in data set [8], 1100 nM.

As to `[2H]C([2H])([2H])NC(=O)c1nnc(Nc2ccc(F)cn2)cc1Nc1ccccc1S(C)(=O)=O`, the AUC(0-t) at 7 h in [12] stood at 11.6 µM·h. Also, the Papp A→B in [3] amounted to 14.3 ×10⁻⁶ cm/s. Moreover, the half-life in [13] amounted to 50 min; in [14] it was 10 min; in data set [15] it was 71 min; in [16], 80 min; in data set [18], 32 min. The IC50 in [5] is 200 nM; in data set [6], 0.58 nM; in data set [19] it was 380 nM. This compound also yielded a logP in [17] of 2.77. In data set [9], the efflux ratio is 3.4. The compound further displayed a Cmax in data set [20] of 3890 nM.

On to `CNC(=O)c1cnc(Nc2ccc(F)cn2)cc1Nc1ccccc1`, for which the half-inhibitory concentration (IC50) in [1] is 4500 nM; in data set [5], above 10000 nM; in data set [6], 11 nM; in data set [7] it was 5200 nM; in data set [8], 5600 nM. For the same compound, the remaining at 10 min in data set [2] amounted to 37%; in data set [4], 65%; in data set [10] it was 51%. In data set [3], the Papp A→B is 29.3 ×10⁻⁶ cm/s. The efflux ratio in data set [9] was determined as 0.5.

For `CNC(=O)c1cnc(Nc2ccc(N3CCOCC3)cn2)cc1Nc1ccccc1S(C)(=O)=O`, the IC50 in data set [11] is above 2000 nM; in data set [5], 58 nM; in data set [7] it was 59 nM; in data set [8], 71 nM; in [21] it was 40000 nM. Moreover, in data set [3], the Papp A→B was below 1.5 ×10⁻⁶ cm/s. The efflux ratio in data set [9] was above 26.
